Test results published in patent publication US20060234916A1, “Cardioprotective agent” (Mizuo Miyazaki, priority 2003, published 2006).

Legend:
[1] = system: Syrian hamsters myocardial infarction model; experiment: Survival rate after myocardial infarction (left coronary artery ligation) with oral administration; type: in vivo; conditions: placebo 39.1%
Description: The left coronary artery was ligated in Syrian hamsters (SLC, Co., Ltd., Shizuoka, Japan), 6 weeks of age, weighing 85 to 90 g, to prepare a myocardial infarction model (Jpn. J. Pharmacol., 86, p. 203-214 2001 life Sci. 71 p. 437-446 2002). […] It should be noted that the significant test was performed by log rank test using the survival curve.

[2] = Stability (half-life) in human blood plasma; type: in vitro ADME
Description: The agent of the present invention may contain the peptide derivative of an aryl diester of alpha-aminoalkylphosphonic acids. […] These derivatives are contained in human blood plasma, and remarkably stable under a variety of circumstances. For example, the preferred inhibitor Suc-Val-Pro-Phe^P(OPh)2, particularly preferably, Suc-Val-Pro-L-Phe^P(OPh)2 contained in the agent of the present invention, has a half-life of about 20 hours in human blood plasma. This stability is important, because it is predicted that a peritoneal exudate neutralizes most of protease inhibitors to damage their activity. Aminoalkylphosphonic acids are analogous of alpha-amino acids, and designated by the generally acceptable three-letter abbreviation for an amino acid followed by the superscript P. For example, diphenyl alpha-(N-benzyloxycarbonylamino)ethylphosphonate which is related to alanine is abbreviated Cbz-Ala^P(OPh)2.

[3] = target: T1, chymase (Homo sapiens, UniProt P23946); experiment: Suppression of chymase activity in blood vessel tissue of the living body after use during operation; type: in vivo; conditions: used at 10 μM during the operation; effect for 4 weeks
T1 construct: the chymase activity in the blood vessel tissue of the living body; from tissue; host or cells: blood vessel tissue of the living body
T1 sequence (P23946 22-247): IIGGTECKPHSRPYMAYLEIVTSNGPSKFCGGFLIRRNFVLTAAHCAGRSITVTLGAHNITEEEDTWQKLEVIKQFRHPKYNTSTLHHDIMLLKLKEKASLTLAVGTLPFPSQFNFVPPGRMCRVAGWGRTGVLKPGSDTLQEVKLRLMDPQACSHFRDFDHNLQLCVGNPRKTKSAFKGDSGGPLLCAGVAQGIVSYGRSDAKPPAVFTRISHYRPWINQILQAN
Description: The agent of the present invention allows at least one protease inhibitor to be administered in a substantially sufficient amount so that the inhibitor may exist by an effective concentration in the site of heart to protect. […] The effective administration amount of chymase inhibitor (Suc-Val-Pro-L-Phe^P(Oph)2) can be selected in the range from 0.0001 to 100 mg per 1 kg of adult body weight, per one day. For example, it is administered intravenously by an amount selected in the range from 0.001 to 100 mg, preferably from 0.01 to 1 mg, and orally by an amount selected in the range from 0.1 to 100 mg, preferably from 0.1 to 10 mg.

Molecule | survival rate up to the 14th day ([1]; 10 mg/kg orally once a day, administered from the day before the operation, log rank test significant, FIG. 1) [%] | survival rate up to the 14th day ([1]; 10 mg/kg orally, administered from the day after the operation, significant, FIG. 2) [%] | half-life in human blood plasma [2] | chymase activity in the blood vessel tissue of the living body [3]
CC(C)C(NC(=O)CCC(=O)O)C(=O)N1CCCC1C(=O)NC(Cc1ccccc1)P(=O)(Oc1ccccc1)Oc1ccccc1 [Suc-Val-Pro-L-Phe^P(OPh)2] | 88.9 | 88.9 | about 20 hours | suppress significantly
Suc-Val-Pro-Phe^P(OPh)2 | – | – | about 20 hours | –
